From the SangsterLogP compilation

SMILES | logP
CCCC(=NOCC)C1C(=O)CC2(CCC(C)C2)OC1=O (centres undefined) | 3.66
CCCC(=NOCC)C1C(=O)CC(C)(C2CC2)OC1=O (centres undefined) | 3.28
CCCC(=NOCC)C1C(=O)CC2(CCC(CC)CC2)OC1=O (centres undefined) | 4.48
CCCC(=NOCC)C1C(=O)CC2(C=CCCC2)OC1=O (centres undefined) | 3.2
CCCC(=NOCC)C1C(=O)CC2(CCCCC2C)OC1=O (centres undefined) | 3.9
CC=C(C)C1(C)CC(=O)C(C(CCC)=NOCC)C(=O)O1 (centres undefined) | 3.4
CCCC(=NOCC)C1C(=O)CC2(CCCC2)OC1=O (centres undefined) | 3.22

Other lines, results leading:

logP | SMILES
5.3 | CCCC(=NOCC)C1C(=O)CC2(CCC(C(C)(C)C)CC2)OC1=O (centres undefined)
3.62 | CCCC(=NOCC)C1C(=O)CC2(CCCCC2)OC1=O (centres undefined)
5 | CCCC(=NOCC)C1C(=O)CC2(CCCc3ccccc32)OC1=O (centres undefined)
4.07 | CCCC(=NOCC)C1C(=O)CC2(CCC(C)CC2)OC1=O (centres undefined)
4.75 | CCCC(=NOCC)C1C(=O)CC(c2ccccc2)(c2ccccc2)OC1=O (centres undefined)
2.9 | CCCC(=NOCC)C1C(=O)CC2(CCSCC2)OC1=O (centres undefined)
4.48 | CCCC(=NOCC)C1C(=O)CC2(CC(C)CC(C)C2)OC1=O (centres undefined)
